These results are taken from patent publication US8637550B2, “Heteroaryl diamide compounds useful as MMP-13 inhibitors” (Boehringer Ingelheim International GmbH, priority 2008, dated 2014).

This assay concerns the target MMP-13 (Homo sapiens, UniProt P45452). Kind of assay: EnzoLyte 520 Generic MMP Assay Kit, 5-FAM/QXL520 FRET peptide substrate. The assay is classed as biochemical. The text has this:
The EnzoLyte™ 520 Generic MMP Assay Kit (AnaSpec Inc.) can detect the activity of several MMPs including MMP-1, 2, 3, 7, 8, 9, 13, and 14. This kit uses a 5-FAM/QXL™520 fluorescence resonance energy transfer (FRET) peptide as an MMP substrate.
One may read the IC50 as the concentration that gives 50% inhibition. Read a low IC50 as greater potency in that assay. As to `CNC(=O)[C@@H](NC(=O)c1ccc(-c2cccc(CNC(=O)c3ccc(N(C)C)cc3)c2)o1)C(C)C` [5-{3-[(4-Dimethylamino-benzoylamino)-methyl]-phenyl}-furan-2-carboxylic acid ((S)-2-methyl-1-methylcarbamoyl-propyl)-amide], the concentration for half-maximal inhibition (IC50) came out at 110 nM.
`CNC(=O)[C@@H](NC(=O)c1ccc(-c2cccc(CNC(=O)c3ccc(C(C)C)cc3)c2)o1)C(C)C` [5-{3-[(4-Isopropyl-benzoylamino)-methyl]-phenyl}-furan-2-carboxylic acid ((S)-2-methyl-1-methylcarbamoyl-propyl)-amide] returned an IC50 of 225 nM.
`CNC(=O)[C@@H](NC(=O)c1ccc(-c2cccc(CNC(=O)c3ccc(OC)cc3)c2)o1)C(C)C` [5-{3-[(4-Methoxy-benzoylamino)-methyl]-phenyl}-furan-2-carboxylic acid ((S)-2-methyl-1-methylcarbamoyl-propyl)-amide]: half-maximal inhibition (IC50) required 155 nM.
For `CNC(=O)[C@@H](NC(=O)c1ccc(-c2cccc(CNC(=O)c3ccc(C)cc3)c2)o1)C(C)C` [5-{3-[(4-Methyl-benzoylamino)-methyl]-phenyl}-furan-2-carboxylic acid ((S)-2-methyl-1-methylcarbamoyl-propyl)-amide] the value was 175 nM.
In the case of `CNC(=O)[C@@H](NC(=O)c1ccc(-c2cccc(CNC(=O)C3CCCCC3)c2)o1)C(C)C` [5-{3-[(Cyclohexanecarbonyl-amino)-methyl]-phenyl}-furan-2-carboxylic acid ((S)-2-methyl-1-methylcarbamoyl-propyl)-amide] it was 165 nM; in that of `CNC(=O)[C@@H](NC(=O)c1ccc(-c2cccc(CNC(=O)c3cccc(Br)n3)c2)o1)C1CC1` [6-Bromo-N-[3-(5-{[(1S)-1-cyclopropyl-2-(methylamino)-2-oxoethyl]carbamoyl}-2-furyl)benzyl]pyridine-2-carboxamide], 27 nM.
For `CNC(=O)[C@@H](NC(=O)c1ccc(-c2cccc(CNC(=O)c3cccc(Cl)n3)c2)o1)C(C)C` [6-Chloro-N-[3-(5-{[(1S)-2-methyl-1-(methylcarbamoyl)propyl]carbamoyl}-2-furyl)benzyl]pyridine-2-carboxamide], half-maximal inhibition (IC50) required 2 nM.
In the case of `CNC(=O)[C@@H](NC(=O)c1ccc(-c2cccc(CNC(=O)c3cccc(F)n3)c2)o1)C(C)C` [6-Fluoro-N-[3-(5-{[(1S)-2-methyl-1-(methylcarbamoyl)propyl]carbamoyl}-2-furyl)benzyl]pyridine-2-carboxamide] it was 2 nM.
In the case of `CNC(=O)[C@@H](NC(=O)c1ccc(-c2ccc(NC(=O)c3cccc(C)n3)cc2)o1)C(C)C` [6-Methyl-N-[4-(5-{[(2S)-3-methyl-1-(methylamino)-1-oxobutan-2-yl]carbamoyl}furan-2-yl)phenyl]pyridine-2-carboxamide] it was 14 nM; in that of `CNC(=O)[C@@H](NC(=O)c1ccc(-c2ccc(NC(=O)c3cn4cc(C(N)=O)ccc4n3)cc2)o1)C1CCCCC1` [Imidazo[1,2-a]pyridine-2,6-dicarboxylic acid 6-amide 2-[(4-{5-[((S)-cyclohexyl-methylcarbamoyl-melhyl)-carbamoyl]-furan-2-yl}-phenyl)-amide]], 24 nM; in that of `CNC(=O)[C@@H](NC(=O)c1ccc(-c2ccc(NC(=O)OC)cc2)o1)C1CCCCC1` [Methyl [4-(5-{[(1S)-1-cyclohexyl-2-(methylamino)-2-oxoethyl]carbamoyl}furan-2-yl)phenyl]carbamate], 225 nM.
`CNC(=O)[C@@H](NC(=O)c1ccc(-c2cccc(CNC(=O)c3cccc(C)n3)c2)o1)C1CCCCC1` [N-[3-(5-{[(1S)-1-cyclohcxyl-2-(methylamino)-2-oxoethyl]carbamoyl}furan-2-yl)benzyl]-6-methylpyridine-2-carboxamide] yielded an IC50 of 4 nM.
For `CNC(=O)[C@@H](NC(=O)c1ccc(-c2cccc(CNC(=O)c3cc(C)n(C)n3)c2)o1)C1CCCCC1` [N-[3-(5-{[(1S)-1-cyclohexyl-2-(methylamino)-2-oxoethyl]carbamoyl}furan-2-yl)benzyl]-1,5-dimethyl-1H-pyrazole-3-carboxamide] the value was 72 nM.
For `CNC(=O)[C@@H](NC(=O)c1ccc(-c2cccc(CNC(=O)c3cc4ccccc4o3)c2)o1)C1CCCCC1` [N-[3-(5-{[(1S)-1-cyclohexyl-2-(methylamino)-2-oxoethyl]carbamoyl}furan-2-yl)benzyl]-1-benzofuran-2-carboxamide] the value was 11 nM.
For `CNC(=O)[C@@H](NC(=O)c1ccc(-c2cccc(CNC(=O)c3nccn3C)c2)o1)C1CCCCC1` [N-[3-(5-{[(1S)-1-cyclohexyl-2-(methylamino)-2-oxoethyl]carbamoyl}furan-2-yl)benzyl]-1-methyl-1H-imidazole-2-carboxamide] the value was 313 nM; for `CNC(=O)[C@@H](NC(=O)c1ccc(-c2cccc(CNC(=O)c3ccn(C)n3)c2)o1)C1CCCCC1` [N-[3-(5-{[(1S)-1-cyclohexyl-2-(methylamino)-2-oxoethyl]carbamoyl}furan-2-yl)benzyl]-1-methyl-1H-pyrazole-3-carboxamide], 24 nM.
Molecule `CNC(=O)[C@@H](NC(=O)c1ccc(-c2cccc(CNC(=O)c3ccnn3C)c2)o1)C1CCCCC1` [N-[3-(5-{[(1S)-1-cyclohexyl-2-(methylamino)-2-oxoethyl]carbamoyl}furan-2-yl)benzyl]-1-methyl-1H-pyrazole-5-carboxamide] registered an IC50 of 143 nM.
In the case of `CNC(=O)[C@@H](NC(=O)c1ccc(-c2cccc(CNC(=O)c3ccnc(C(F)(F)F)n3)c2)o1)C1CCCCC1` [N-[3-(5-{[(1S)-1-cyclohexyl-2-(methylamino)-2-oxoethyl]carbamoyl}furan-2-yl)benzyl]-2-(trifluoromethyl)pyrimidine-4-carboxamide] it was 7 nM.
In the case of `CNC(=O)[C@@H](NC(=O)c1ccc(-c2cccc(CNC(=O)c3cc(C)n[nH]3)c2)o1)C1CCCCC1` [N-[3-(5-{[(1S)-1-cyclohexyl-2-(methylamino)-2-oxoethyl]carbamoyl}furan-2-yl)benzyl]-3-methyl-1H-pyrazole-5-carboxamide] it was 123 nM; in that of `CNC(=O)[C@@H](NC(=O)c1ccc(-c2cccc(CNC(=O)c3occc3C)c2)o1)C1CCCCC1` [N-[3-(5-{[(1S)-1-cyclohexyl-2-(methylamino)-2-oxoethyl]carbamoyl}furan-2-yl)benzyl]-3-methylfuran-2-carboxamide], 180 nM.
In the case of `CNC(=O)[C@@H](NC(=O)c1ccc(-c2cccc(CNC(=O)c3ncccc3C)c2)o1)C1CCCCC1` [N-[3-(5-{[(1S)-1-cyclohexyl-2-(methylamino)-2-oxoethyl]carbamoyl}furan-2-yl)benzyl]-3-methylpyridine-2-carboxamide] it was 103 nM; in that of `CCc1ccnc(C(=O)NCc2cccc(-c3ccc(C(=O)N[C@H](C(=O)NC)C4CCCCC4)o3)c2)c1` [N-[3-(5-{[(1S)-1-cyclohexyl-2-(methylamino)-2-oxoethyl]carbamoyl}furan-2-yl)benzyl]-4-ethylpyridine-2-carboxamide], 38 nM; in that of `CNC(=O)[C@@H](NC(=O)c1ccc(-c2cccc(CNC(=O)c3cn4c(C)cccc4n3)c2)o1)C1CCCCC1` [N-[3-(5-{[(1S)-1-cyclohexyl-2-(methylamino)-2-oxoethyl]carbamoyl}furan-2-yl)benzyl]-5-methylimidazo[1,2-a]pyridine-2-carboxamide], 110 nM.
Turning to `CNC(=O)[C@@H](NC(=O)c1ccc(-c2cccc(CNC(=O)c3cncc(C)c3)c2)o1)C1CCCCC1` [N-[3-(5-{[(1S)-1-cyclohexyl-2-(methylamino)-2-oxoethyl]carbamoyl}furan-2-yl)benzyl]-5-methylpyridine-3-carboxamide], the midpoint of inhibition, the IC50, lay at 30 nM.
In the case of `CNC(=O)[C@@H](NC(=O)c1ccc(-c2cccc(CNC(=O)c3cn4ccc(C)cc4n3)c2)o1)C1CCCCC1` [N-[3-(5-{[(1S)-1-cyclohexyl-2-(methylamino)-2-oxoethyl]carbamoyl}furan-2-yl)benzyl]-7-methylimidazo[1,2-a]pyridine-2-carboxamide] it was 137 nM; in that of `CNC(=O)[C@@H](NC(=O)c1ccc(-c2cccc(CNC(=O)c3ccccn3)c2)o1)C1CCCCC1` [N-[3-(5-{[(1S)-1-cyclohexyl-2-(methylamino)-2-oxoethyl]carbamoyl}furan-2-yl)benzyl]pyridine-2-carboxamide], 9 nM; in that of `CNC(=O)[C@@H](NC(=O)c1ccc(-c2cccc(CNC(=O)c3ccnc(C(F)(F)F)n3)c2)o1)C1CCOCC1` [N-[3-(5-{[(1S)-2-(methylamino)-2-oxo-1-(tetrahydro-2H-pyran-4-yl)ethyl]carbamoyl}-2-furyl)benzyl]-2-(trifluoromethyl)pyrimidine-4-carboxamide], 2 nM.
For `CNC(=O)[C@@H](NC(=O)c1ccc(-c2cccc(CNC(=O)c3cccc(C(F)(F)F)n3)c2)o1)C1CCOCC1` [N-[3-(5-{[(1S)-2-(methylamino)-2-oxo-1-(tetrahydro-2H-pyran-4-yl)ethyl]carbamoyl}-2-furyl)benzyl]-6-(trifluoromethyl)pyridine-2-carboxamide] the value was 2 nM.
For `CNC(=O)[C@@H](NC(=O)c1ccc(-c2cccc(CNC(=O)C3CCCN3)c2)o1)C(C)C` (stereo partly drawn) [N-[3-(5-{[(1S)-2-methyl-1-(methylcarbamoy)propyl]carbamoyl}-2-furyl)benzyl]prolinamide] the value was 305 nM; for `CNC(=O)[C@@H](NC(=O)c1ccc(-c2cccc(CNC(=O)c3cc4ccccc4o3)c2)o1)C(C)C` [N-[3-(5-{[(1S)-2-methyl-1-(methylcarbamoyl)propyl]carbamoyl}-2-furyl)benzyl]-1-benzofuran-2-carboxamide], 8 nM; for `CNC(=O)[C@@H](NC(=O)c1ccc(-c2cccc(CNC(=O)c3nc4ccccc4[nH]3)c2)o1)C(C)C` [N-[3-(5-{[(1S)-2-methyl-1-(methylcarbamoyl)propyl]carbamoyl}-2-furyl)benzyl]-1H-benzimidazole-2-carboxamide], 33 nM.
